Results published in US9670201B2, “Methyl- and trifluoromethyl-substituted pyrrolopyridine modulators of RORC2 and methods of use thereof” (Pfizer Inc., priority 2014, dated 2017).

Biological target: RORC2 ligand binding domain (6-His-RORC2 LBD) (Homo sapiens (Human), UniProt P51449)
Test: Co-activator recruitment by TR-FRET
Format: biochemical
Conditions: 6-His-RORC2 LBD / SRC1-2 coactivator peptide, Table 1

Chain of RORC2 ligand binding domain (6-His-RORC2 LBD) (P51449 269-508): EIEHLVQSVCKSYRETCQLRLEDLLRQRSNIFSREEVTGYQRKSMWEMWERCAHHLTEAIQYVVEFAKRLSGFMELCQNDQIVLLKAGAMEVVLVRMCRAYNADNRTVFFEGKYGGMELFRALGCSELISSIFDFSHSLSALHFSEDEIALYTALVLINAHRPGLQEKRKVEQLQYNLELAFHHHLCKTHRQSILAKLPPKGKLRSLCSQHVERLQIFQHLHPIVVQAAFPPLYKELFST

Cc1c(NC(=O)c2cccc(C#N)c2)cnc2c1c([C@@H]1CCN(C(=O)CC3CCCCC3)C(C)(C)C1)cn2C [Example 75, (R)-3-cyano-N-(3-(1-(2-cyclohexylacetyl)-2,2-dimethylpiperidin-4-yl)-1,4-dimethyl-1H-pyrrolo[2,3-b]pyridin-5-yl)benzamide]
IC50: 7.3 nM

Cc1c(NC(=O)c2cccc(C#N)c2)cnc2c1c([C@@H]1CCN(C(=O)CC3CCC3)C(C)(C)C1)cn2C [Example 76, (R)-3-cyano-N-(3-(1-(2-cyclobutylacetyl)-2,2-dimethylpiperidin-4-yl)-1,4-dimethyl-1H-pyrrolo[2,3-b]pyridin-5-yl)benzamide]
IC50: 7.5 nM

CC(C)C(=O)N1C[C@H]2CC[C@@H](C1)[C@@H]2c1cn(C)c2ncc(NC(=O)c3cccc(C#N)c3)c(C(F)(F)F)c12 [Example 77, 3-cyano-N-(3-((1R,5S,8r)-3-isobutyryl-3-azabicyclo[3.2.1]octan-8-yl)-1-methyl-4-(trifluoromethyl)-1H-pyrrolo[2,3-b]pyridin-5-yl)benzamide]
IC50: 5.2 nM

Cn1cc(C2[C@@H]3CC[C@H]2CN(C(=O)C2CCCC2)C3)c2c(C(F)(F)F)c(NC(=O)c3cccc(C#N)c3)cnc21 (stereo partly drawn) [Example 79, 3-cyano-N-{3-((1R,5S,8r)-3-(cyclopentanecarbonyl)-3-azabicyclo[3.2.1]octan-8-yl]-1-methyl-4-(trifluoromethyl)-1H-pyrrolo[2,3-b]pyridin-5-yl}benzamide]
IC50: 39.1 nM

CC(C)C(=O)N1CC[C@@H](c2cn(C)c3ncc(NC(=O)c4cccc(C#N)c4F)c(C(F)(F)F)c23)[C@@H](C)C1 [Example 82, 3-cyano-2-fluoro-N-(3-((3R,4R)-1-isobutyryl-3-methylpiperidin-4-yl)-1-methyl-4-(trifluoromethyl)-1H-pyrrolo[2,3-b]pyridin-5-yl)benzamide]
IC50: 5.1 nM

Cc1c(NC(=O)c2cccc(C#N)c2)cnc2c1c([C@@H]1CCN(C(=O)C(C)C3CC3)C[C@@H]1C)cn2C (stereo partly drawn) [Example 86, 3-cyano-N-(3-((3R,4R)-1-(2-cyclopropylpropanoyl)-3-methylpiperidin-4-yl)-1,4-dimethyl-1H-pyrrolo[2,3-b]pyridin-5-yl)benzamide]
IC50: 16 nM

COc1cc(C#N)cc(C(=O)Nc2cnc3c(c([C@@H]4CCN(C(=O)C5CCCC5)[C@@H](C)C4)cn3C)c2C)c1 [Example 90, 3-cyano-N-(3-((2S,4R)-1-(cyclopentanecarbonyl)-2-methylpiperidin-4-yl)-1,4-dimethyl-1H-pyrrolo[2,3-b]pyridin-5-yl)-5-methoxybenzamide]
IC50: 21.2 nM

COc1ccc(C(=O)Nc2cnc3c(c(C4[C@@H]5CC[C@H]4CN(C(=O)C4CCCC4)C5)cn3C)c2C)cc1C#N (stereo partly drawn) [Example 99, 3-cyano-N-(3-((1R,5S,8r)-3-(cyclopentanecarbonyl)-3-azabicyclo[3.2.1]octan-8-yl)-1,4-dimethyl-1H-pyrrolo[2,3-b]pyridin-5-yl)-4-methoxybenzamide]
IC50: 21.1 nM

Cc1c(NC(=O)c2cccc(C#N)c2)cnc2c1c([C@@H]1CCN(C(=O)C(C)C)[C@@H](C)C1)cn2C [Example 113, 3-cyano-N-(3-((2S,4R)-1-isobutyryl-2-methylpiperidin-4-yl)-1,4-dimethyl-1H-pyrrolo[2,3-b]pyridin-5-yl)benzamide]
IC50: 20.2 nM
